Results taken from US11136321B2, “Tricyclic compounds” (ALIGOS THERAPEUTICS, INC., priority 2019, dated 2021).

Tested on: HBV
Assay: HBV-DNA antiviral assay using HepG2.117 cells
Type: cell-based, genotype D HBV
Settings: Hepatitis B virus, 72 h, intracellular HBV DNA by qPCR, 3 days incubation
Summary of the method: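 HepG2.117 cells (genotype D HBV, Tet-off) seeded without doxycycline and treated for 3 days at 9 concentrations (4-fold dilutions) in 2% DMSO. Intracellular HBV DNA measured by qPCR against a standard curve, with viability from ATPlite run in parallel. EC50, EC90 and CC50 fitted relative to DMSO controls.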

Structure (SMILES) | EC50
CNC(=O)c1ccc(-n2c(=O)c3c(n4ncc(Cc5ccc(F)cc5)c24)CN(C(=O)c2ccc(Br)c(Cl)c2)CC3)cc1 [Compound 59, 4-[12-(4-bromo-3-chloro-benzoyl)-5-[(4-fluorophenyl)methyl]-8-oxo-2,3,7,12-tetrazatricyclo [7.4.0.0 2,6]trideca-1(9),3,5-trien-7-yl]-N-methyl-benzamide] | ≤ 100 nM
CNC(=O)c1ccc(-n2c(=O)c3c(n4ncc(Cc5ccc(F)cc5)c24)CN(C(=O)c2ccc(Br)c(C#N)c2)CC3)cc1 [Compound 60, 4-[12-(4-bromo-3-cyano-benzoyl)-5-[(4-fluorophenyl)methyl]-8-oxo-2,3,7,12-tetrazatricyclo [7.4.0.0 2,6]trideca-1(9),3,5-trien-7-yl]-N-methyl-benzamide] | ≤ 100 nM
CCNC(=O)c1ccc(-n2c(=O)c3c(n4ncc(Cc5ccccc5)c24)CN(C(=O)c2ccc(Br)c(Cl)c2)CC3)cc1 [Compound 61, 4-[5-benzyl-12-(4-bromo-3-chloro-benzoyl)-8-oxo-2,3,7,12-tetrazatricyclo [7.4.0.0 2,6]trideca-1(9),3,5-trien-7-yl]-N-ethyl-benzamide] | 500 to 5000 nM
CCNC(=O)c1ccc(-n2c(=O)c3c(n4ncc(Cc5ccccc5)c24)CN(C(=O)c2ccc(Br)c(C#N)c2)CC3)cc1 [Compound 62, 4-[5-benzyl-12-(4-bromo-3-cyano-benzoyl)-8-oxo-2,3,7,12-tetrazatricyclo [7.4.0.0 2,6]trideca-1(9),3,5-trien-7-yl]-N-ethyl-benzamide] | 500 to 5000 nM
CNC(=O)c1ccc(-n2c(=O)c3c(n4ncc(Nc5ccc(F)cc5)c24)CN(C(=O)c2ccc(Br)c(C#N)c2)CC3)cc1 [Compound 63, 4-[12-(4-bromo-3-cyano-benzoyl)-5-(4-fluoroanilino)-8-oxo-2,3,7,12-tetrazatricyclo [7.4.0.0 2,6]trideca-1(9),3,5-trien-7-yl]-N-methyl-benzamide] | 100 to 500 nM
CC(C)NC(=O)c1ccc(-n2c(=O)c3c(n4ncc(Cc5ccccc5)c24)CN(C(=O)c2ccc(Br)c(Cl)c2)CC3)cc1 [Compound 64, 4-[5-benzyl-12-(4-bromo-3-chloro-benzoyl)-8-oxo-2,3,7,12-tetrazatricyclo [7.4.0.0 2,6]trideca-1(9),3,5-trien-7-yl]-N-isopropyl-benzamide] | 500 to 5000 nM
CC(C)NC(=O)c1ccc(-n2c(=O)c3c(n4ncc(Cc5ccccc5)c24)CN(C(=O)c2ccc(Br)c(C#N)c2)CC3)cc1 [Compound 65, 4-[5-benzyl-12-(4-bromo-3-cyano-benzoyl)-8-oxo-2,3,7,12-tetrazatricyclo [7.4.0.0 2,6]trideca-1(9),3,5-trien-7-yl]-N-isopropyl-benzamide] | 500 to 5000 nM
CNC(=O)c1ccc(-n2c(=O)c3c(n4ncc(NCc5ccccc5F)c24)CN(C(=O)c2ccc(Br)c(Cl)c2)CC3)cc1 [Compound 66, 4-[12-(4-bromo-3-chloro-benzoyl)-5-[(2-fluorophenyl)methylamino]-8-oxo-2,3,7,12-tetrazatricyclo [7.4.0.0 2,6]trideca-1(9),3,5-trien-7-yl]-N-methyl-benzamide] | ≤ 100 nM
CNC(=O)c1ccc(-n2c(=O)c3c(n4ncc(NCc5ccc(F)cc5)c24)CN(C(=O)c2ccc(Br)c(Cl)c2)CC3)cc1 [Compound 67, 4-[12-(4-bromo-3-chloro-benzoyl)-5-[(4-fluorophenyl)methylamino]-8-oxo-2,3,7,12-tetrazatricyclo [7.4.0.0 2,6]trideca-1(9),3,5-trien-7-yl]-N-methyl-benzamide] | ≤ 100 nM
O=C(NC1CC1)c1ccc(-n2c(=O)c3c(n4ncc(Cc5ccccc5)c24)CN(C(=O)c2ccc(Br)c(Cl)c2)CC3)cc1 [Compound 68, 4-[5-benzyl-12-(4-bromo-3-chloro-benzoyl)-8-oxo-2,3,7,12-tetrazatricyclo [7.4.0.0 2,6]trideca-1(9),3,5-trien-7-yl]-N-cyclopropyl-benzamide] | > 5000 nM
CNC(=O)c1ccc(-n2c(=O)c3c(n4ncc(NCc5ccccc5F)c24)CN(C(=O)c2ccc(Br)c(C#N)c2)CC3)cc1 [Compound 69, 4-[12-(4-bromo-3-cyano-benzoyl)-5-[(2-fluorophenyl)methylamino]-8-oxo-2,3,7,12-tetrazatricyclo [7.4.0.0 2,6]trideca-1(9),3,5-trien-7-yl]-N-methyl-benzamide] | 100 to 500 nM
CNC(=O)c1ccc(-n2c(=O)c3c(n4ncc(NCc5ccc(F)cc5)c24)CN(C(=O)c2ccc(Br)c(C#N)c2)CC3)cc1 [Compound 70, 4-[12-(4-bromo-3-cyano-benzoyl)-5-[(4-fluorophenyl)methylamino]-8-oxo-2,3,7,12-tetrazatricyclo [7.4.0.0 2,6]trideca-1(9),3,5-trien-7-yl]-N-methyl-benzamide] | 100 to 500 nM
N#Cc1cc(C(=O)N2CCc3c(n4ncc(Cc5ccccc5)c4n(-c4ccc(-c5ncc[nH]5)cc4)c3=O)C2)ccc1Br [Compound 73, 5-[5-benzyl-7-[4-(1H-imidazol-2-yl)phenyl]-8-oxo-2,3,7,12-tetrazatricyclo [7.4.0.0 2,6]trideca-1(9),3,5-triene-12-carbonyl]-2-bromo-benzonitrile] | 500 to 5000 nM
NC(=O)c1ccc(-n2c(=O)c3c(n4ncc(Cc5ccccc5)c24)CN(C(=O)c2ccc(Br)c(Cl)c2)CC3)cc1 [Compound 75, 4-[5-benzyl-12-(4-bromo-3-chloro-benzoyl)-8-oxo-2,3,7,12-tetrazatricyclo [7.4.0.0 2,6]trideca-1(9),3,5-trien-7-yl] benzamide] | 500 to 5000 nM
N#Cc1cc(C(=O)N2CCc3c(n4ncc(Cc5ccccc5)c4n(-c4ccc(C(=O)NC5CC5)cc4)c3=O)C2)ccc1Br [Compound 76, 4-[5-benzyl-12-(4-bromo-3-cyano-benzoyl)-8-oxo-2,3,7,12-tetrazatricyclo [7.4.0.0 2,6]trideca-1(9),3,5-trien-7-yl]-N-cyclopropyl-benzamide] | > 5000 nM
O=C(c1ccc(Br)c(Cl)c1)N1CCc2c(n3ncc(Cc4ccccc4)c3n(-c3ccc(-n4cccn4)cc3)c2=O)C1 [Compound 77, 5-benzyl-12-(4-bromo-3-chloro-benzoyl)-7-(4-pyrazol-1-ylphenyl)-2,3,7,12-tetrazatricyclo [7.4.0.0 2,6] trideca-1(9),3,5-trien-8-one] | > 5000 nM
N#Cc1cc(C(=O)N2CCc3c(n4ncc(Cc5ccccc5)c4n(-c4ccc(-n5cccn5)cc4)c3=O)C2)ccc1Br [Compound 78, 5-[5-benzyl-8-oxo-7-(4-pyrazol-1-ylphenyl)-2,3,7,12-tetrazatricyclo [7.4.0.0 2,6]trideca-1(9),3,5-triene-12-carbonyl]-2-bromo-benzonitrile] | > 5000 nM
N#Cc1cc(C(=O)N2CCc3c(n4ncc(Cc5ccccc5)c4n(-c4ccc(C(N)=O)cc4)c3=O)C2)ccc1Br [Compound 82, 4-[5-benzyl-12-(4-bromo-3-cyano-benzoyl)-8-oxo-2,3,7,12-tetrazatricyclo [7.4.0.0 2,6]trideca-1(9),3,5-trien-7-yl] benzamide] | > 5000 nM
CNC(=O)c1ccc(-n2c(=O)c3c(n4ncc(NC(C)c5ccccc5)c24)CN(C(=O)c2ccc(Br)c(C#N)c2)CC3)cc1 (centres unmarked) [Compound 83, 4-[12-(4-bromo-3-cyano-benzoyl)-8-oxo-5-(1-phenylethylamino)-2,3,7,12-tetrazatricyclo [7.4.0.0 2,6]trideca-1(9),3,5-trien-7-yl]-N-methyl-benzamide] | 100 to 500 nM
CNC(=O)c1ccc(-n2c(=O)c3c(n4ncc(Cc5ccc(C#N)cc5F)c24)CN(C(=O)c2ccc(Br)c(C#N)c2)CC3)cc1 [Compound 84, 4-[12-(4-bromo-3-cyano-benzoyl)-5-[(4-cyano-2-fluoro-phenyl)methyl]-8-oxo-2,3,7,12-tetrazatricyclo [7.4.0.0 2,6]trideca-1(9),3,5-trien-7-yl]-N-methyl-benzamide] | 500 to 5000 nM
CNC(=O)c1ccc(-n2c(=O)c3c(n4ncc(Cc5ccc(C#N)cc5F)c24)CN(C(=O)c2ccc(Br)c(Cl)c2)CC3)cc1 [Compound 85, 4-[12-(4-bromo-3-chloro-benzoyl)-5-[(4-cyano-2-fluoro-phenyl)methyl]-8-oxo-2,3,7,12-tetrazatricyclo [7.4.0.0 2,6]trideca-1(9),3,5-trien-7-yl]-N-methyl-benzamide] | ≤ 100 nM
CNC(=O)c1ccc(-n2c(=O)c3c(n4ncc(Cc5ccc(OC)cc5F)c24)CN(C(=O)c2ccc(Br)c(C#N)c2)CC3)cc1 [Compound 86, 4-[12-(4-bromo-3-cyano-benzoyl)-5-[(2-fluoro-4-methoxy-phenyl)methyl]-8-oxo-2,3,7,12-tetrazatricyclo [7.4.0.0 2,6]trideca-1(9),3,5-trien-7-yl]-N-methyl-benzamide] | 100 to 500 nM
CNC(=O)c1ccc(-n2c(=O)c3c(n4ncc(Cc5ccc(OC)cc5F)c24)CN(C(=O)c2ccc(Br)c(Cl)c2)CC3)cc1 [Compound 87, 4-[12-(4-bromo-3-chloro-benzoyl)-5-[(2-fluoro-4-methoxy-phenyl)methyl]-8-oxo-2,3,7,12-tetrazatricyclo [7.4.0.0 2,6]trideca-1(9),3,5-trien-7-yl]-N-methyl-benzamide] | ≤ 100 nM
CNC(=O)c1ccc(-n2c(=O)c3c(n4ncc(Cc5ccc(OC)cc5)c24)CN(C(=O)c2ccc(Br)c(Cl)c2)CC3)cc1 [Compound 88, 4-[12-(4-bromo-3-chloro-benzoyl)-5-[(4-methoxyphenyl)methyl]-8-oxo-2,3,7,12-tetrazatricyclo [7.4.0.0 2,6]trideca-1(9),3,5-trien-7-yl]-N-methyl-benzamide] | ≤ 100 nM
CNC(=O)c1ccc(-n2c(=O)c3c(n4ncc(Cc5ccc(OC)cc5)c24)CN(C(=O)c2ccc(Br)c(C#N)c2)CC3)cc1 [Compound 89, 4-[12-(4-bromo-3-cyano-benzoyl)-5-[(4-methoxyphenyl)methyl]-8-oxo-2,3,7,12-tetrazatricyclo [7.4.0.0 2,6]trideca-1(9),3,5-trien-7-yl]-N-methyl-benzamide] | ≤ 100 nM
O=C(c1ccc(Br)c(Cl)c1)N1CCc2c(n3ncc(Cc4ccccc4)c3n(-c3ccc(-c4ncc[nH]4)cc3)c2=O)C1 [Compound 90, 5-benzyl-12-(4-bromo-3-chloro-benzoyl)-7-[4-(1H-imidazol-2-yl)phenyl]-2,3,7,12-tetrazatricyclo [7.4.0.0 2,6] trideca-1(9),3,5-trien-8-one] | 500 to 5000 nM
